Data: patent US5137811A, “Method for diagnosing periodontal diseases with a substrate specific for aminopeptidase activity of periodontopathic bacteria” (Sunstar Kabushiki Kaisha, priority 1986, dated 1992)
Where a SMILES comes first, the peptide text is derived from it. The star is where a group is joined. βNA = c1ccc2cc(N*)ccc2c1; Bz = O=C(c1ccccc1)*

What was measured:
[1] = tested on: B. intermedius; test: Hydrolytic activity of cell suspension on aminopeptidase substrates (Experiment 2); assay type: cell-based; settings: three strains, Table 2
How it was run: (§1)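 Treponema strains were cultured anaerobically in TYGVS for 7 days at 37° C.; the other bacteria grew in brain heart infusion broth for 48 to 72 hours. Each suspension, diluted to A660 1.0, hydrolysed 0.2 mM substrate over 60 minutes at 37° C., and colour developed 15 minutes before reading at 525 nm.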

[2] = tested on: Fusobacterium nucleatum; test: as above; assay type: cell-based; settings: three strains, Table 2
How it was run: as §1

[3] = tested on: B. melaninogenicus; test: as above; assay type: cell-based; settings: two strains, Table 2
How it was run: as §1

[4] = tested on: Treponema denticola; test: as above; assay type: cell-based; settings: four strains, Table 2
How it was run: as §1

[5] = tested on: Actinomyces israelli; test: as above; assay type: cell-based; settings: two strains, Table 2
How it was run: as §1

[6] = tested on: Actinobacillus actinomycetemcomitans; test: as above; assay type: cell-based; settings: four strains, Table 2
How it was run: as §1

[7] = tested on: B. gingivalis; test: as above; assay type: cell-based; settings: five strains, Table 2
How it was run: as §1

[8] = tested on: B. denticola; test: as above; assay type: cell-based; settings: Table 2
How it was run: as §1

[9] = tested on: B. corporis; test: as above; assay type: cell-based; settings: Table 2
How it was run: as §1

[10] = tested on: periodontopathic bacteria specific aminopeptidase activity; test: Hydrolytic activity of gingival crevicular fluid specimens, OD525 (Experiment 6); assay type: biochemical
Description: (§2) Substrate compounds for aminopeptidase enzyme having various color developing groups derived from β-naphthylamine were dissolved in 0.1M Tris-HCl buffer (pH 7.0) at the concentration of 0.2 mM to obtain substrate solutions.
(§3) To the substrate solution (1.5 ml) was added the above cell suspension (0.3 ml) and reacted at 37° C. for 60 minutes. After completion of the reaction, a coloring reagent [prepared by dissolving diazonium salt of Garnet GBC in 1M acetate buffer (containing 10% Tween 20, pH: 4.2) at the concentration of 0.5 mg/ml] was added and, after 15 minutes, the absorption at 525 nm was determined with a spectrophotometer.
Specimens of gingival crevicular fluid were collected with paper points from five subjects who were considered to be healthy from their clinical state, six subjects with gingivitis and six subjects with periodontitis. Each specimen was dispersed in Ringer's solution (1.5 ml), and the relative amount of spirochete to total bacteria: [formula] was determined with a phase contrast microscope. Further, the Ringer's solution (0.3 ml) was tested for hydrolytic activity using the substrate solution prepared in the same manner as described in Experiment 1. As substrates, there were used compounds of the formula [1], i.e., N-benzoylvalyl-glycyl-arginine-β-naphthylamide (BzVGR) and N-carbobenzoxy-valyl-glycyl-arginine-β-naphthylamide (CxVGR) were used.
According to the same manner as described in Experiment 4, hydrolytic activity was tested by using the compounds of the formulas and [2], i.e., glycyl-proline-βnaphthylamide (GP), N-benzoyl-arginyl-glycyl-phenylalanylproline-β-naphthylamide (BzRGFP), N-carbobenzoxy-valylglycyl-arginine-β-naphthylamide (CxVGR) and N-benzoylglycyl-arginine-β-naphthylamide (BzGR) alone or in combination. Hydrolytic activity was determined by measuring absorption at 525 nm (OD525) and expressed as follows.

[11] = tested on: Fusobacterium nucleatum; test: Hydrolytic activity of cell suspension, substrates alone or in combination (Experiment 3); assay type: cell-based; settings: three strains, Table 3
Description: (§4) The strains of Treponema were anaerobically cultivated using TYGVS media at 37° C. for 7 days, while other bacterial strains were cultivated using brain heart infusion broth at 37° C. for 48 to 72 hours. Each culture was diluted to obtain a bacterial cell suspension, the absorption at 660 nm of which was 1.0.
as §2, §3
(§5) On the basis of the average amount of released β-naphthylamine in each strain, the hydrolytic activity was expressed as follows: […]
(§6) According to the same manner as described in Experiment 1, periodontopathic bacteria specific aminopeptidase activity was tested by using four strains of Treponema denticola, five strains of B. gingivalis, four strains of Actinobacillus actinomycetemcomitans, two strains of Actinomyces israelli and three strains of Fusobacterium nucleatum. Abbreviations in Table 3 are the same as those in Tables 1 and 2. Hydrolytic activity "+++" means "40≤release amount<80 nmol/ml" and "++++" means "release amount≥80 nmol/ml".

[12] = tested on: Treponema denticola; test: as above; assay type: cell-based; settings: four strains, Table 3
Description: as §4, §2, §3, §5, §6

[13] = tested on: Actinomyces israelli; test: as above; assay type: cell-based; settings: two strains, Table 3
Description: as §4, §2, §3, §5, §6

[14] = tested on: Actinobacillus actinomycetemcomitans; test: as above; assay type: cell-based; settings: four strains, Table 3
Description: as §4, §2, §3, §5, §6

[15] = tested on: B. gingivalis; test: as above; assay type: cell-based; settings: five strains, Table 3
Description: as §4, §2, §3, §5, §6

[16] = tested on: periodontopathic bacteria specific aminopeptidase activity; test: Hydrolytic activity of saliva supernatant, substrates alone or in combination (Experiment 9); assay type: biochemical; settings: 37° C. for 4 hours, Table 9
Description: A saliva mixture was collected from a group consisting of ten healthy subjects and centrifuged to obtain a supernatant. Likewise, centrifuged supernatants were obtained from a group of ten subjects with adult periodontitis and a group of four localized juvenile periodontitis. The supernatant was used as a specimen and its hydrolytic activity was determined according to the same manner as described in Experiment 4 except that the reaction was carried out at 37° C. for 4 hours. As the substrates, there were used N-carbobenzoxy-valyl-glycyl-arginine-p-nitrophenol (CxVGR-pNP), N-carbobenzoxy-valyl-glycylarginine-4-methoxy-2-naphthylamide (CxVGR-4NA) and N-carbobenzoxy-valyl-glycyl-arginine-β-naphthylamide (CxVGR-βNA). Color was developed by using lN sodium hydroxide for CxVGR-pNP and Fast Blue BB for CxVGR-4NA and CxVGR-βNA.
According to the same manner as described in Experiment 7, hydrolytic activity was tested by using N-carbobenzoxy-valyl-glycyl-arginine-β-naphthylamide (CxVGR-βNA), N-benzoyl-arginyl-glycyl-phenylalanyl-proline-β-naphthylamide (BzRGFP-βNA), N-carbobenzoxy-valyl-glycylarginine-p-nitrophenol (CxVGR-pNP) and N-benzoyl-arginylglycyl-phenylalanyl-proline-p-nitrophenol (BzRGFP-pNP) alone or in combination as the substrates.

N=C(N)NCCC[C@H](NC(=O)c1ccccc1)C(=O)NCC(=O)N[C@@H](Cc1ccccc1)C(=O)N1CCC[C@H]1C(=O)Nc1ccc2ccccc2c1 [BzRGFP, N-benzoyl-arginyl-glycyl-phenylalanyl-proline-β-naphthylamide] (Bz-RGFP-βNA)
++ (20 ≤release amount<40 nmol/ml): hydrolytic activity (average amount of released β-naphthylamine) [4] | hydrolytic activity (average amount of released β-naphthylamine) [7] | hydrolytic activity (average amount of released β-naphthylamine) [9] | hydrolytic activity (release amount) [12] | hydrolytic activity (release amount) [15]
22.6 ± 5.3 nmol/mL: hydrolytic activity ([16]; Localized juvenile periodontitis subjects)
+ (0.1≤OD525 <0.2): hydrolytic activity, absorption at 525 nm (OD525) ([10]; Gingivitis subject 1 (spirochete 7.3 %)) | hydrolytic activity, absorption at 525 nm (OD525) ([10]; Gingivitis subject 2 (spirochete 16.7 %)) | hydrolytic activity, absorption at 525 nm (OD525) ([10]; Gingivitis subject 6 (spirochete 14.4 %)) | hydrolytic activity, absorption at 525 nm (OD525) ([10]; Healthy subject 2 (spirochete 2.5 %))
++ (0.2≤OD525 <0.4): hydrolytic activity, absorption at 525 nm (OD525) ([10]; Gingivitis subject 3 (spirochete 20.5 %))
13.2 ± 5.4 nmol/mL: hydrolytic activity ([16]; Healthy subjects)
- (OD525 <0.1): hydrolytic activity, absorption at 525 nm (OD525) ([10]; Gingivitis subject 4 (spirochete 6.8 %)) | hydrolytic activity, absorption at 525 nm (OD525) ([10]; Gingivitis subject 5 (spirochete 7.3 %)) | hydrolytic activity, absorption at 525 nm (OD525) ([10]; Healthy subject 1 (spirochete 0.1 %)) | hydrolytic activity, absorption at 525 nm (OD525) ([10]; Healthy subject 3 (spirochete 1.1 %)) | hydrolytic activity, absorption at 525 nm (OD525) ([10]; Healthy subject 4 (spirochete 0.6 %)) | hydrolytic activity, absorption at 525 nm (OD525) ([10]; Healthy subject 5 (spirochete 1.3 %))
+++ (release amount≥40 nmol/ml): hydrolytic activity (average amount of released β-naphthylamine) [1] | hydrolytic activity (average amount of released β-naphthylamine) [3] | hydrolytic activity (average amount of released β-naphthylamine) [8]
- (release amount<5 nmol/ml): hydrolytic activity (average amount of released β-naphthylamine) [2] | hydrolytic activity (average amount of released β-naphthylamine) [5] | hydrolytic activity (average amount of released β-naphthylamine) [6] | hydrolytic activity (release amount) [11] | hydrolytic activity (release amount) [13] | hydrolytic activity (release amount) [14]
+++ (0.4≤OD525 <0.8): hydrolytic activity, absorption at 525 nm (OD525) ([10]; Periodontitis subject 1 (spirochete 45.2 %)) | hydrolytic activity, absorption at 525 nm (OD525) ([10]; Periodontitis subject 2 (spirochete 30.3 %)) | hydrolytic activity, absorption at 525 nm (OD525) ([10]; Periodontitis subject 3 (spirochete 34.6 %)) | hydrolytic activity, absorption at 525 nm (OD525) ([10]; Periodontitis subject 4 (spirochete 21.2 %)) | hydrolytic activity, absorption at 525 nm (OD525) ([10]; Periodontitis subject 5 (spirochete 40.3 %)) | hydrolytic activity, absorption at 525 nm (OD525) ([10]; Periodontitis subject 6 (spirochete 35.1 %))
27.8 ± 7.4 nmol/mL: hydrolytic activity ([16]; Adult Periodontitis subjects)
